Molecules are shown by their SMILES. Like-named read-outs stand apart in the source and are kept apart here.

For one assay, the system named is CLL cells. Put plainly: cells. As to conditions: Homo sapiens, CLL cell, 72 h, 72 h, CCcompound104 5 μg/ml, CCcompound26 1 μM, alone or combined. As to the method:
Heparinized peripheral-blood samples were obtained from chronic lymphocytic leukemia patients with more than 70% malignant cells after informed consent, in accordance with the Declaration of Helsinki. The blood samples (10-ml) were diluted 1:1 with cold phosphate buffered saline (PBS; 0.135 M NaCl, 2.7 mM KCl, 1.5 mM KH2PO4, 8 mM Na2HPO4 [pH 7.4]) and layered onto Ficoll-Hypaque (8-ml, specific gravity, 1.086; Life Technologies, Grand Island, N.Y.). Then, the blood was centrifuged at 433 g for 20 min, and mononuclear cells were removed from the interphase. Cells were washed twice with cold PBS and after each centrifugation step the pelleted cells were resuspended in 10-ml RPMI 1640 supplemented with 10% fetal bovine serum (inactivated for 30 min at 56° C.). A Coulter channelyzer (Coulter Electronics, Hialeah, Fla.) was used to determine the cell number. Then the number of cells was adjusted to 1×10^7 cells per 1 ml before using them for the experiments.
For the determination of relative number of viable cells before and after treatments, in most cases the MTT assay was used. This calorimetric assay is based on the ability of living cells, but not dead cells, to reduce 3-(4, 5-dimethyl thiazol-2-yl)-2, 5-diphenyltetrazolium bromide [Carmichael, J, De Graff, W. G., Gazdar, A. F., Minna, J. D. and Mitchell, J. B. (1987), “Evaluation oftetrazolium-based semiautomated calorimetric assay: Assessment of chemosensitivity testing,” Cancer Res., 47, 936-942]. For this assay, cells were plated in 96-well plates (10,000-30,000 cells in case of cultured cells, 100,000 cells in case of healthy lymphocytes, and 200,000 cells in case of chronic lymphocytic leukemia or non-Hodgkin lymphocytes) in the respective incubation media. After a 24-h resting period, the cells were treated with the test agents and then incubated (in CO2 incubator under humidified atmosphere) for 72 hours (final incubation volume, 150 μl). The MTT assay was performed both with the untreated and treated cell cultures at the conclusion of the incubation. Often, the MTT assay also was performed at the start of treatments to allow assessment of proliferation rates in the control and treated cell cultures. All data presented are the average of 4 incubations (in 4 separate wells) with the same cell population.

Assay [1] concerns CaOV-3 human ovarian cancer cell line. Briefly: Cell viability, CaOV-3 cells. As to conditions: Caov-3, read-out: decrease in viability / inhibition. The source says: For the determination of relative number of viable cells before and after treatments, in most cases the MTT assay was used. This calorimetric assay is based on the ability of living cells, but not dead cells, to reduce 3-(4, 5-dimethyl thiazol-2-yl)-2, 5-diphenyltetrazolium bromide [Carmichael, J, De Graff, W. G., Gazdar, A. F., Minna, J. D. and Mitchell, J. B. (1987), “Evaluation oftetrazolium-based semiautomated calorimetric assay: Assessment of chemosensitivity testing,” Cancer Res., 47, 936-942]. For this assay, cells were plated in 96-well plates (10,000-30,000 cells in case of cultured cells, 100,000 cells in case of healthy lymphocytes, and 200,000 cells in case of chronic lymphocytic leukemia or non-Hodgkin lymphocytes) in the respective incubation media. After a 24-h resting period, the cells were treated with the test agents and then incubated (in CO2 incubator under humidified atmosphere) for 72 hours (final incubation volume, 150 μl). The MTT assay was performed both with the untreated and treated cell cultures at the conclusion of the incubation. Often, the MTT assay also was performed at the start of treatments to allow assessment of proliferation rates in the control and treated cell cultures. All data presented are the average of 4 incubations (in 4 separate wells) with the same cell population. […]

As for `C=CC[N+](CC)(CC)CC/C=C1/c2ccccc2Sc2ccc(C)cc21.[Br-]` [CCcompound26, N,N-Diethyl-N-allyl-3-(2-methyl-9H-thioxanthen-9-ylidene)-propan-1-aminiumbromide], the cytotoxicity at 1 µM with CLL cells (read-out: Inhibition (%) of viability, CLL patient 1) worked out at 3.5%; in the assay with CLL cells (read-out: Inhibition (%) of viability, CLL patient 2), 15.8%; in the assay on CLL cells (read-out: Inhibition (%) of viability, CLL patient 3), 66.6%; with CLL cells (read-out: Inhibition (%) of viability, CLL patient 4), 46.2%; with CLL cells (read-out: Inhibition (%) of viability, CLL patient 5), 10.8%; in the assay on CLL cells (read-out: Inhibition (%) of viability, CLL patient 6), 20.9%. In addition, the cytotoxicity at 1 µM came out at 1.8% in the assay on CLL cells (read-out: Inhibition (%) of viability, CLL patient 7); 9% in the assay with CLL cells (read-out: Inhibition (%) of viability, CLL patient 8); 9.2% in the assay with CLL cells (read-out: Inhibition (%) of viability, CLL patient 9); 40.7% in the assay with CLL cells (read-out: Inhibition (%) of viability, CLL patient 10); 48.1% in the assay on CLL cells (read-out: Inhibition (%) of viability, CLL patient 11); 30.4% in the assay on CLL cells (read-out: Inhibition (%) of viability, CLL patient 12). In addition, the cytotoxicity at 1 µM in the assay on CLL cells (read-out: Inhibition (%) of viability, CLL patient 13) amounted to 42.8%; in the assay on CLL cells (read-out: Inhibition (%) of viability, CLL patient 14), 72.7%; with CLL cells (read-out: Inhibition (%) of viability, CLL patient 15), 1.6%; in the assay on CLL cells (read-out: Inhibition (%) of viability, CLL patient 16), 50%; in the assay on CLL cells (read-out: Inhibition (%) of viability, CLL patient 19), 22.5%; with CLL cells (read-out: Inhibition (%) of viability, CLL patient 20) it was 0%. The cytotoxicity at 12.5 µM in assay [1] is less than 15%. The cytotoxicity at 25 µM in assay [1] was less than 45%.
